The source of these data is PubChem BioAssay AID328 (DTP/NCI, 2004).

Molecules are shown by their SMILES. Several values for one entry are separate records, joined by “and”; a condition that tells them apart may be missing. Equal values may be shown once. Toxic doses and inconclusive results are not listed.

The test concerns BDF1 mice, P388 leukemia ip, median survival T/C. Put plainly: NCI In Vivo Anticancer Drug Screen. Data for tumor model P388 Leukemia (intraperitoneal) in B6D2F1 (BDF1) mice. Conditions: endpoint: median survival time, higher = longer survival. In outline: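 Survival ratio, drug arm over vehicle arm, in mice with a transplanted tumour.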
Setting [1] is: dose: 100.0 mg/kg/injection, schedule: Q04DX003 (ip), vehicle: saline with Tween-80.
[2] abbreviates: dose: 200.0 mg/kg/injection, schedule: Q04DX003 (ip), vehicle: saline with Tween-80.
The mark [3] stands for this setting: dose: 400.0 mg/kg/injection, schedule: Q04DX003 (ip), vehicle: saline with Tween-80.
[4] abbreviates: dose: 100.0 mg/kg/injection, schedule: Q01DX009 (ip), vehicle: saline.
[5] abbreviates: dose: 50.0 mg/kg/injection, schedule: Q01DX009 (ip), vehicle: saline with Tween-80.
[6] abbreviates: dose: 100.0 mg/kg/injection, schedule: Q01DX009 (ip), vehicle: saline with Tween-80.
[7] abbreviates: dose: 200.0 mg/kg/injection, schedule: Q01DX009 (ip), vehicle: saline with Tween-80.
The mark [8] stands for this setting: dose: 3.12 mg/kg/injection, schedule: Q01DX009 (ip), vehicle: saline with Tween-80.
Where [9] appears, read: dose: 50.0 mg/kg/injection, schedule: Q04DX003 (ip), vehicle: saline with Tween-80.
Where [10] appears, read: dose: 12.5 mg/kg/injection, schedule: Q01DX009 (ip), vehicle: saline with Tween-80.
[11] abbreviates: dose: 25.0 mg/kg/injection, schedule: Q01DX009 (ip), vehicle: saline with Tween-80.

Take `Cc1c2oc3c(C)ccc(C(=O)NC4C(=O)NC(C(C)C)C(=O)N5CCCC5C(=O)N(C)CC(=O)N(C)C(C(C)C)C(=O)OC4C)c3nc-2c(C(=O)NC2C(=O)NC(C(C)C)C(=O)N3CCCC3C(=O)N(C)CC(=O)N(C)C(C(C)C)C(=O)OC2C)cc1=O` (stereo not drawn): the T/C by setting is: (dose: 0.24 mg/kg/injection, schedule: Q01DX009 (ip), vehicle: saline + alcohol) 97 % of control; (dose: 0.34 mg/kg/injection, schedule: Q01DX009 (ip), vehicle: saline + alcohol) 101 % of control; (dose: 0.49 mg/kg/injection, schedule: Q01DX009 (ip), vehicle: saline + alcohol) 100 % of control; (dose: 0.7 mg/kg/injection, schedule: Q01DX009 (ip), vehicle: saline + alcohol) 112 % of control; (dose: 1.0 mg/kg/injection, schedule: Q01DX009 (ip), vehicle: saline + alcohol) 106 % of control; (dose: 1.17 mg/kg/injection, schedule: Q04DX003 (ip), vehicle: saline + alcohol) 107 % of control and 124 % of control. Besides, the T/C (dose: 1.7 mg/kg/injection, schedule: Q04DX003 (ip), vehicle: saline + alcohol) is 104 % of control; the T/C (dose: 1.94 mg/kg/injection, schedule: Q04DX003 (ip), vehicle: saline + alcohol) was 107 % of control; the T/C (dose: 2.4 mg/kg/injection, schedule: Q01DX001 (ip), vehicle: saline + alcohol) was 112 % of control; the T/C (dose: 3.4 mg/kg/injection, schedule: Q01DX001 (ip), vehicle: saline + alcohol) is 113 % of control; the T/C (dose: 4.9 mg/kg/injection, schedule: Q04DX003 (ip), vehicle: saline + alcohol) is 150 % of control; the T/C (dose: 5.4 mg/kg/injection, schedule: Q04DX003 (ip), vehicle: saline + alcohol) was 168 % of control. The T/C is 169 % of control (dose: 7.0 mg/kg/injection, schedule: Q04DX003 (ip), vehicle: saline + alcohol); 159 % of control and 176 % of control (dose: 9.0 mg/kg/injection, schedule: Q04DX003 (ip), vehicle: saline + alcohol); 153 % of control (dose: 10.0 mg/kg/injection, schedule: Q01DX001 (ip), vehicle: saline + alcohol); 183 % of control and 193 % of control (dose: 15.0 mg/kg/injection, schedule: Q04DX003 (ip), vehicle: saline + alcohol).
With `CN1C=NNc2ccc(Cl)cc2C1=O`, the T/C by setting is: under setting [1], 103 % of control; under setting [2], 114 % of control; under setting [3], 109 % of control.
As for `CC1(C)SC2C(NC(=O)Cc3ccccc3)C(=O)N2C1C(=O)O` (stereo not drawn), the T/C reads like this: under setting [4], 90 % of control; (dose: 400.0 mg/kg/injection, schedule: Q01DX009 (ip), vehicle: saline) 100 % of control.
Consider `C[C@H](CCC(=O)O)[C@H]1CC[C@H]2[C@@H]3[C@H](O)C[C@@H]4C[C@H](O)CC[C@]4(C)[C@H]3C[C@H](O)[C@]12C` (tested in a mixture with another compound), for which the T/C was 155 % of control under setting [4]; 122 % of control (dose: 132.0 mg/kg/injection, schedule: Q04DX003 (ip), vehicle: saline sonified); 209 % of control (dose: 200.0 mg/kg/injection, schedule: Q01DX009 (ip), vehicle: other); 190 % of control (dose: 200.0 mg/kg/injection, schedule: Q01DX009 (ip), vehicle: saline); 166 % of control (dose: 300.0 mg/kg/injection, schedule: Q04DX003 (ip), vehicle: saline sonified); 172 % of control (dose: 400.0 mg/kg/injection, schedule: Q04DX003 (ip), vehicle: saline sonified).
Regarding `C/C(=N\N(C)C(=S)Nc1ccccc1)c1ccccn1`, the T/C runs as follows: under setting [5], 95 % of control; under setting [6], 106 % of control; under setting [7], 98 % of control.
For the molecule `O=C(CC(c1ccccc1)c1c(O)c2ccccc2oc1=O)c1ccccc1` (stereo not drawn), the T/C reads like this: (dose: 0.39 mg/kg/injection, schedule: Q01DX009 (ip), vehicle: saline with Tween-80) 108 % of control; (dose: 0.78 mg/kg/injection, schedule: Q01DX009 (ip), vehicle: saline with Tween-80) 106 % of control; (dose: 1.56 mg/kg/injection, schedule: Q01DX009 (ip), vehicle: saline with Tween-80) 97 % of control; under setting [8], 90 % of control; (dose: 12.5 mg/kg/injection, schedule: Q04DX003 (ip), vehicle: saline with Tween-80) 120 % of control; (dose: 25.0 mg/kg/injection, schedule: Q04DX003 (ip), vehicle: saline with Tween-80) 109 % of control. For the same molecule, the T/C by setting is: under setting [9], 92 % of control; under setting [1], 101 % of control; under setting [2], 108 % of control.
Take `Cc1n[nH]c2ccc([N+](=O)[O-])cc2c1=O`: under setting [7], the T/C was 87 % of control.
`CC(=O)n1cc(F)c(=O)[nH]c1=O`: the T/C runs as follows: (dose: 0.57 mg/kg/injection, schedule: Q01DX009 (ip), vehicle: saline) 116 % of control; (dose: 0.99 mg/kg/injection, schedule: Q01DX009 (ip), vehicle: saline) 113 % of control; (dose: 1.3 mg/kg/injection, schedule: Q01DX009 (ip), vehicle: saline) 122 % of control; (dose: 2.0 mg/kg/injection, schedule: Q01DX009 (ip), vehicle: saline) 165 % of control; under setting [8], 150 % of control; (dose: 5.0 mg/kg/injection, schedule: Q04DX003 (ip), vehicle: saline) 122 % of control. Also, the T/C runs as follows: (dose: 6.25 mg/kg/injection, schedule: Q01DX009 (ip), vehicle: saline with Tween-80) 160 % of control and 165 % of control; (dose: 7.2 mg/kg/injection, schedule: Q01DX009 (ip), vehicle: saline with Tween-80) 166 % of control; under setting [10], 178 % of control and 215 % of control; under setting [11], 235 % of control and 195 % of control; (dose: 25.0 mg/kg/injection, schedule: Q04DX003 (ip), vehicle: saline) 122 % of control; under setting [5], 86 % of control. For the same molecule, the T/C is 155 % of control under setting [9]; 150 % of control (dose: 50.0 mg/kg/injection, schedule: Q04DX003 (ip), vehicle: saline); 108 % of control (dose: 100.0 mg/kg/injection, schedule: Q04DX003 (ip), vehicle: other); 181 % of control (dose: 100.0 mg/kg/injection, schedule: Q04DX003 (ip), vehicle: saline); 100 % of control (dose: 150.0 mg/kg/injection, schedule: Q04DX003 (ip), vehicle: other); 90 % of control under setting [3].
As to `CCCCCCCCCCCCCCCCN(C)CCO`, the T/C (dose: 50.0 mg/kg/injection, schedule: Q01DX009 (ip), vehicle: saline + alcohol) was 97 % of control.
Regarding `O=S(=O)(c1ccccc1)N1C2=CCCC3CCCCC23c2ccccc21` (stereo not drawn), the T/C by setting is: (dose: 100.0 mg/kg/injection, schedule: Q04DX002 (ip), vehicle: saline with Tween-80) 95 % of control; (dose: 200.0 mg/kg/injection, schedule: Q04DX002 (ip), vehicle: saline with Tween-80) 92 % of control; (dose: 400.0 mg/kg/injection, schedule: Q04DX002 (ip), vehicle: saline with Tween-80) 92 % of control.
On to `COC[C@H]1OC(=O)c2coc3c2[C@@]1(C)C1=C(C3=O)[C@@H]2CCC(=O)[C@@]2(C)C[C@H]1OC(C)=O`, for which the T/C runs as follows: (dose: 0.16 mg/kg/injection, schedule: Q01DX009 (ip), vehicle: saline) 108 % of control; (dose: 0.31 mg/kg/injection, schedule: Q01DX009 (ip), vehicle: saline) 115 % of control; (dose: 0.63 mg/kg/injection, schedule: Q01DX009 (ip), vehicle: saline) 116 % of control; (dose: 2.5 mg/kg/injection, schedule: Q01DX009 (ip), vehicle: saline) 117 % of control.
In the case of `O=c1c2ccccc2ncn1-c1ccc(Cl)cc1`, the T/C by setting is: under setting [5], 97 % of control; under setting [6], 100 % of control; under setting [7], 100 % of control.
As for `CC1NC(=O)OC1C(C)(C)C` (stereo not drawn), the T/C is 88 % of control under setting [10]; 98 % of control under setting [11]; 86 % of control and 95 % of control under setting [5].
Regarding `Nc1nc2ncc(CN(CCS(=O)(=O)F)c3ccc(C(=O)NC(CCC(=O)O)C(=O)O)cc3)nc2c(=O)[nH]1` (stereo not drawn), the T/C reads like this: (dose: 50.0 mg/kg/injection, schedule: Q04DX003 (ip), vehicle: sodium bicarbonate) 105 % of control; (dose: 100.0 mg/kg/injection, schedule: Q04DX003 (ip), vehicle: sodium bicarbonate) 99 % of control; (dose: 200.0 mg/kg/injection, schedule: Q04DX003 (ip), vehicle: sodium bicarbonate) 94 % of control.
On to `CCCCCCCCCCCSCCCCCCCCCCC`, for which the T/C runs as follows: under setting [6], 100 % of control; under setting [7], 100 % of control; (dose: 400.0 mg/kg/injection, schedule: Q01DX009 (ip), vehicle: saline with Tween-80) 100 % of control.
